Test system: Anguilla japonica leptocephali
Experiment: Induction of Anguilla japonica metamorphosis by T4 treatment in 23° C. breeding water
Assay type: in vivo
Set-up: key: L: During life, no characteristics of metamorphosis seen.; Stage 1: Starting phase of metamorphosis. The rostral end is rounded, and intestinal degeneration starts.; Stage 2: Peak phase of metamorphosis. Intestinal degeneration becomes pronounced.; Stage 3: Late phase of metamorphosis.; Stage 4: Pre-glass eel stage. Almost the eel form, but the body height still remains
From the text: Stage 1: Starting phase of metamorphosis. The rostral end is rounded, and intestinal degeneration starts.
Stage 2: Peak phase of metamorphosis. Intestinal degeneration becomes pronounced. In the second half, the anus reaches to near the last vertical blood vessel (VBV last).
Stage 3: Late phase of metamorphosis. The preanal length (PAL) becomes equal to or shorter than the last vertical blood vessel length (VBV last Length) (PAL VBV last Length). The body height is apparently low.
Stage 4: Pre-glass eel stage. Almost the eel form, but the body height still remains. Melanophores on the body surface or endogenous melanophores are not yet seen.
Elver stage: Juvenile stage. Food intake can be identified.
A thyroid hormone (e.g., thyroxine (T4)) is adjusted to 50 to 100 mM in a 1- to 2-mL volume messflask. As a solvent, known solvents (water, alcohol) can be used. Ethanol is preferably used as the solvent.
For example, using ethanol as a solvent, T4 adjusted to 50 mM is diluted 500-fold, 5,000-fold, and 50,000-fold, respectively, and adjusted to […], 1 μM, and 100 nM. A feed can be prepared in this manner.
Artificial seawater is added to a breeding vessel, and 1/1000 of the […] T4 is added to prepare […] T4 breeding water.
Half of the breeding water is replaced every two days with breeding water of the same concentration. In the case where the concentration is changed, for example, in the case of changing from 10 nM to 2 nM, 80% to the breeding water is removed, and unadjusted artificial seawater is newly added to make 1 L.
Leptocephali visually considered to have reached a total length of 40 mm (or may be 30 mm to 50 mm, may be 35 mm to 45 mm, or may also be 35 mm or more, 40 mm or more, or 45 mm or more) are selected, anesthetized with 2-phenoxyethanol, and then photographed, and the total length of each larva is measured using an image analyzing device.
The larvae are placed in 10 nM T4 breeding water and then placed in an incubator set at 23° C., and breeding is started. In first one week, observation is performed every two days, and half of the 10 nM T4 breeding water is replaced each time. The average amount of thyroid hormone in the breeding water in stage 1 is 1 nM to 100 nM, for example, and may also be 3 nM to 30 nM, or 5 nM to 20 nM.
For larvae visually judged to have reached the second half of stage 2, the concentration of the breeding water is changed. The breeding water is diluted 5-fold or 10-fold and adjusted to 2 nM or 1 nM T4, and breeding is continued. The average amount of thyroid hormone in the breeding water in stage 2 may be, as compared with the breeding water of stage 1, diluted 2-fold to 20-fold, diluted 3 to 15-fold, or diluted 5 to 10-fold as described above. The average amount of thyroid hormone in the breeding water in stage 2 is 0.1 nM to 20 nM, for example, and may also be 0.5 nM to 10 nM, 1 nM to 5 nM, or 1 nM to 2 nM.
For larvae visually judged to have reached stage 3, the breeding water is quickly changed 0.2 nM T4 breeding water, which is a 5-fold dilution of 1 nM T4 breeding water, and further changed to 0.1 nM T4 breeding water on the following day. […] Also, in larvae whose anus position has not reached the last vertical hemal spine, when they are judged to be on the brink of stage 3, the concentration is changed as above. The average amount of thyroid hormone in the breeding water in stage 3 may be, as compared with the breeding water of stage 2, diluted 2-fold to 50-fold, diluted 3 to 15-fold, diluted 4 to 6-fold, or diluted 5-fold as described above. The average amount of thyroid hormone in the breeding water in stage 3 is 0.01 nM to 2 nM, for example, and may also be 0.05 nM to 1 nM, 0.1 nM to 0.5 nM, or 0.1 nM to 0.2 nM. […] That is, the concentration may be changed such that the thyroid hormone becomes undetectable in the breeding water in the course of stage 3.
In stage 3, breeding is continuously performed in the 0.1 nM T4 breeding water. […]

Measured: metamorphosis stage

N[C@@H](Cc1cc(I)c(Oc2cc(I)c(O)c(I)c2)c(I)c1)C(=O)O [T4, thyroxine]
L: individual Exp. 5-3, 175 days old, total length 41.7 mm at start, c3 onward = treatment days 1,3,5,7,8,9,10,11,12,13,14,15,16,17,18, T4 (nM) 10,10,10,10,2,1,0.2,0.1,0.1,0.1,0.1,0.1, treatment day 1, T4 10 nM | individual Exp. 5-3, 175 days old, total length 41.7 mm at start, c3 onward = treatment days 1,3,5,7,8,9,10,11,12,13,14,15,16,17,18, T4 (nM) 10,10,10,10,2,1,0.2,0.1,0.1,0.1,0.1,0.1, treatment day 3, T4 10 nM | individual Exp. 5-6, 174 days old, total length 34.5 mm at start, c3 onward = treatment days 1,3,5,7,8,9,10,11,12,13,14,15,16,17,18,20,22, T4 (nM) 10,10,10,10,10,10,10,2,1,1,0.2,0.1,0.1,0.1,0.1,0.1,0.1, treatment day 1, T4 10 nM | individual Exp. 5-6, 174 days old, total length 34.5 mm at start, c3 onward = treatment days 1,3,5,7,8,9,10,11,12,13,14,15,16,17,18,20,22, T4 (nM) 10,10,10,10,10,10,10,2,1,1,0.2,0.1,0.1,0.1,0.1,0.1,0.1, treatment day 3, T4 10 nM | individual Exp. 5-6, 174 days old, total length 34.5 mm at start, c3 onward = treatment days 1,3,5,7,8,9,10,11,12,13,14,15,16,17,18,20,22, T4 (nM) 10,10,10,10,10,10,10,2,1,1,0.2,0.1,0.1,0.1,0.1,0.1,0.1, treatment day 5, T4 10 nM | individual Exp. 5-6, 174 days old, total length 34.5 mm at start, c3 onward = treatment days 1,3,5,7,8,9,10,11,12,13,14,15,16,17,18,20,22, T4 (nM) 10,10,10,10,10,10,10,2,1,1,0.2,0.1,0.1,0.1,0.1,0.1,0.1, treatment day 7, T4 10 nM
2: individual Exp. 5-3, 175 days old, total length 41.7 mm at start, c3 onward = treatment days 1,3,5,7,8,9,10,11,12,13,14,15,16,17,18, T4 (nM) 10,10,10,10,2,1,0.2,0.1,0.1,0.1,0.1,0.1, treatment day 7, T4 10 nM | individual Exp. 5-3, 175 days old, total length 41.7 mm at start, c3 onward = treatment days 1,3,5,7,8,9,10,11,12,13,14,15,16,17,18, T4 (nM) 10,10,10,10,2,1,0.2,0.1,0.1,0.1,0.1,0.1, treatment day 8, T4 2 nM | individual Exp. 5-3, 175 days old, total length 41.7 mm at start, c3 onward = treatment days 1,3,5,7,8,9,10,11,12,13,14,15,16,17,18, T4 (nM) 10,10,10,10,2,1,0.2,0.1,0.1,0.1,0.1,0.1, treatment day 9, T4 1 nM | individual Exp. 5-3, 175 days old, total length 41.7 mm at start, c3 onward = treatment days 1,3,5,7,8,9,10,11,12,13,14,15,16,17,18, T4 (nM) 10,10,10,10,2,1,0.2,0.1,0.1,0.1,0.1,0.1, treatment day 10, T4 0.2 nM | individual Exp. 5-6, 174 days old, total length 34.5 mm at start, c3 onward = treatment days 1,3,5,7,8,9,10,11,12,13,14,15,16,17,18,20,22, T4 (nM) 10,10,10,10,10,10,10,2,1,1,0.2,0.1,0.1,0.1,0.1,0.1,0.1, treatment day 8, T4 10 nM | individual Exp. 5-6, 174 days old, total length 34.5 mm at start, c3 onward = treatment days 1,3,5,7,8,9,10,11,12,13,14,15,16,17,18,20,22, T4 (nM) 10,10,10,10,10,10,10,2,1,1,0.2,0.1,0.1,0.1,0.1,0.1,0.1, treatment day 9, T4 10 nM | individual Exp. 5-6, 174 days old, total length 34.5 mm at start, c3 onward = treatment days 1,3,5,7,8,9,10,11,12,13,14,15,16,17,18,20,22, T4 (nM) 10,10,10,10,10,10,10,2,1,1,0.2,0.1,0.1,0.1,0.1,0.1,0.1, treatment day 10, T4 10 nM
1: individual Exp. 5-3, 175 days old, total length 41.7 mm at start, c3 onward = treatment days 1,3,5,7,8,9,10,11,12,13,14,15,16,17,18, T4 (nM) 10,10,10,10,2,1,0.2,0.1,0.1,0.1,0.1,0.1, treatment day 5, T4 10 nM
3: individual Exp. 5-2, 175 days old, total length 41.3 mm at start, c3 onward = treatment days 1,3,5,7,8,9,10,11,12,13,14,15,16,17,18, T4 (nM) 10,10,10,10,2,1,0.2,0.1,0.1,0.1,0.1,0.1, treatment day 14, T4 0.1 nM | individual Exp. 5-2, 175 days old, total length 41.3 mm at start, c3 onward = treatment days 1,3,5,7,8,9,10,11,12,13,14,15,16,17,18, T4 (nM) 10,10,10,10,2,1,0.2,0.1,0.1,0.1,0.1,0.1, treatment day 15, T4 0.1 nM | individual Exp. 5-3, 175 days old, total length 41.7 mm at start, c3 onward = treatment days 1,3,5,7,8,9,10,11,12,13,14,15,16,17,18, T4 (nM) 10,10,10,10,2,1,0.2,0.1,0.1,0.1,0.1,0.1, treatment day 11, T4 0.1 nM | individual Exp. 5-3, 175 days old, total length 41.7 mm at start, c3 onward = treatment days 1,3,5,7,8,9,10,11,12,13,14,15,16,17,18, T4 (nM) 10,10,10,10,2,1,0.2,0.1,0.1,0.1,0.1,0.1, treatment day 12, T4 0.1 nM | individual Exp. 5-3, 175 days old, total length 41.7 mm at start, c3 onward = treatment days 1,3,5,7,8,9,10,11,12,13,14,15,16,17,18, T4 (nM) 10,10,10,10,2,1,0.2,0.1,0.1,0.1,0.1,0.1, treatment day 13, T4 0.1 nM | individual Exp. 5-3, 175 days old, total length 41.7 mm at start, c3 onward = treatment days 1,3,5,7,8,9,10,11,12,13,14,15,16,17,18, T4 (nM) 10,10,10,10,2,1,0.2,0.1,0.1,0.1,0.1,0.1, treatment day 14, T4 0.1 nM | individual Exp. 5-3, 175 days old, total length 41.7 mm at start, c3 onward = treatment days 1,3,5,7,8,9,10,11,12,13,14,15,16,17,18, T4 (nM) 10,10,10,10,2,1,0.2,0.1,0.1,0.1,0.1,0.1, treatment day 15, T4 0.1 nM | individual Exp. 5-3, 175 days old, total length 41.7 mm at start, c3 onward = treatment days 1,3,5,7,8,9,10,11,12,13,14,15,16,17,18, T4 (nM) 10,10,10,10,2,1,0.2,0.1,0.1,0.1,0.1,0.1, treatment day 16 | individual Exp. 5-3, 175 days old, total length 41.7 mm at start, c3 onward = treatment days 1,3,5,7,8,9,10,11,12,13,14,15,16,17,18, T4 (nM) 10,10,10,10,2,1,0.2,0.1,0.1,0.1,0.1,0.1, treatment day 17
4: individual Exp. 5-2, 175 days old, total length 41.3 mm at start, c3 onward = treatment days 1,3,5,7,8,9,10,11,12,13,14,15,16,17,18, T4 (nM) 10,10,10,10,2,1,0.2,0.1,0.1,0.1,0.1,0.1, treatment day 16 | individual Exp. 5-3, 175 days old, total length 41.7 mm at start, c3 onward = treatment days 1,3,5,7,8,9,10,11,12,13,14,15,16,17,18, T4 (nM) 10,10,10,10,2,1,0.2,0.1,0.1,0.1,0.1,0.1, treatment day 18

Reference: patent publication US20200093103A1, “BREEDING WATER FOR ANGUILLIFORMES AND METHOD FOR REARING ANGUILLIFORMES” (SHIN NIPPON BIOMEDICAL LABORATORIES, LTD., priority 2016, published 2020)
